Results as given in patent publication US20070219214A1, “Dual NK2/NK3-antagonists, pharmaceutical compositions comprising them, and processes for their preparation” (Solvay pharmaceuticals GmbH, priority 2006, published 2007).
Read-outs that look alike come from different tables or passages of the source.

Assays:
NK3-receptor = molecular target: T1, NK3-receptor (Cavia porcellus, UniProt P30098); test: NK-3-receptor-antagonistic effectiveness in vivo, senktide-induced hypertension in guinea pigs; details: guinea pig; for ID50 (iv), inhibition of blood pressure / ID50 (po), inhibition of blood pressure: senktide 0.4 μg/kg i.v.; for ID50 (iv), inhibition of blood pressure: intravenous administration; for ID50 (po), inhibition of blood pressure: oral administration
T1 construct: from tissue; host or cells: whole animal (Dunkin Hartley guinea pigs), in vivo
T1 sequence (P30098 1-440): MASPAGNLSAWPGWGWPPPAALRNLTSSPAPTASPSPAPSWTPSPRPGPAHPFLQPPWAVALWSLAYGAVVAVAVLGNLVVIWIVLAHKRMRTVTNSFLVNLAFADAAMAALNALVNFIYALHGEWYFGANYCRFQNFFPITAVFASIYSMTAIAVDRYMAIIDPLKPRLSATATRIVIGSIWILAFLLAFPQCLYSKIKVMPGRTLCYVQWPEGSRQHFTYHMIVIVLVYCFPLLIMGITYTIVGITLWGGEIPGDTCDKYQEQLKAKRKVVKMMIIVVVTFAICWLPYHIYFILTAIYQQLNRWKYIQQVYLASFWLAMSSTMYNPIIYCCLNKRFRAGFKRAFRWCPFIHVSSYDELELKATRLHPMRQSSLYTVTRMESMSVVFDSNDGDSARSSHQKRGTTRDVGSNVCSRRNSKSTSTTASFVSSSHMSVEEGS
Experimental: 9. Determination of the NK-3-Receptor-Antagonistic Effectiveness of the Test Substances In Vivo (Reduction of Blood Pressure in Guinea-Pigs with Senktide-Induced Hypertension)
NK3 agonists increase the blood pressure in guinea pigs. The senktide-induced hypertension can be antagonized by administering compounds with NK3-antagonistic properties. Measuring the level of hypertension is indicative of the degree of activity of the test compounds. The effect of the tested compound is assessed in the same experiment to exclude an additional hypertensional effect.
Male Dunkin Hartley guinea pigs with a body weight between 450 and 550 g were anesthetized with Ketamin (200 mg/kg i.m.; Aescoket 10%) and the left carotid artery and left jugular vein were cannulated for blood pressure measurement and drug application, respectively. The animals were allowed to breathe spontaneously. Blood pressure was measured with a strain gauge transducer connected to a computer via an amplifier.
For oral administration, vehicle (1% methylcellulose) or test compound was administered in a dose volume of 5 ml/kg. Forty five minutes thereafter, anesthesia was induced and the carotid artery and jugular vein were cannulated.
For intravenous administration, the test compounds were dissolved in 40% hydroxypropyl-β-cyclodextrine (HPCD) containing 10% DMSO, diluted with saline and administered intravenously in cumulative dose ranges. A vehicle group of animals received the corresponding HPCD/DMSO solutions instead of the test compound. For oral administration, the test compound was suspended in 1% methylcellulose. A vehicle group of animals received the corresponding […] of the test compound.

human NK2-receptor [1] = molecular target: T2, human NK2-receptor (Homo sapiens, UniProt P21452); test: Functional cellular test, Ca2+ measurements using FLIPR for NK2 activity; details: for pA2 data for NK2: CHO cells, human NK2, FLIPR Ca2+, agonist NKA 10^-7 M;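 on all read-outs here: CHO cells stably expressing the human receptor, loaded with a calcium dye, antagonist inhibition of ligand-evoked intracellular calcium rise read as peak fluorescence change on FLIPR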
T2 sequence (P21452 1-398): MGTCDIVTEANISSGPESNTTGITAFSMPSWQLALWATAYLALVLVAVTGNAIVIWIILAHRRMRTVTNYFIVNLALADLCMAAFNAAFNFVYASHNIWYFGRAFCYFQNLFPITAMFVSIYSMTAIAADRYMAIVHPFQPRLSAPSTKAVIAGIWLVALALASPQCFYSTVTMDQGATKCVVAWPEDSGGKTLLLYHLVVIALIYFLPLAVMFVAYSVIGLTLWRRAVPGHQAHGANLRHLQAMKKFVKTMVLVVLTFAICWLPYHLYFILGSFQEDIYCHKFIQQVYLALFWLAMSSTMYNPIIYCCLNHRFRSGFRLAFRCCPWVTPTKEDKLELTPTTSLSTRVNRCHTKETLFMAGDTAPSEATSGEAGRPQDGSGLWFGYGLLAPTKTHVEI
Experimental: Functional Cellular Tests of the NK1-, NK2- and NK3-Antagonism
Functional cellular tests of the antagonistic effect of the compounds of the present invention on the human tachykinin receptors were performed in CHO cells expressing the recombinant human NK1, NK2 or NK3-receptor. In these tests the inhibition of ligand-induced increase in mobilization of intracellular calcium and inhibition of ligand-induced phosphorylation of mitogen activated protein kinase (MAPK) were determined, which can be used as a measure of functional activity of tachykinin-antagonists. Additionally, the antagonistic properties of reference compounds on the different tachykinin receptors were characterized for comparison.
The effects of test compounds were assessed using Chinese hamster ovary (CHO) fibroblast cells, stably expressing cloned human NK1, NK2 or NK3-receptors. The NK receptor is coupled to Gq. The activation of the Gq protein by ligand binding to the receptor leads to a mobilization of intracellular calcium and phosphorylation of MAPK. Both systems were used to determine functional effects of the test compounds.
Ca^2+ Measurements Using FLIPR for NK1 and NK2 Activity
For tests, cells were seeded 24 hours prior to the experiment into black 96-well microplates. The cell density was 2.2×10^4 cells/well. All steps were done under sterile conditions. In order to observe changes in intracellular calcium levels, cells were loaded with a calcium-sensitive dye. This dye (FLUO-4, from Molecular Probes) excites at 488 nm, and emits in the 500 nm to 560 nm range, only if a complex with calcium is formed. For the dye loading the growth-medium was aspirated out of the well without disturbing the confluent cell layer and 100 μl loading medium (HBSS, 4 μM FLUO-4, 0.005% (w/v) pluronic acid, 2.5 mM probenecid, 20 mM HEPES, pH 7.4) was dispensed into each well using an automatic pipettor system (Multidrop, Labsystems). Pluronic acid was added to increase dye solubility and dye uptake into the cells, whereas probenecid, an anion exchange inhibitor, was added to the loading medium to increase dye retention in the cells. The cells were incubated in a 5% CO2 incubator at 37° C. for 40 minutes. After dye loading, the cells were washed three times with wash-buffer (HBSS, 2.5 mM probenecid, 20 mM HEPES, pH 7.4) to reduce basal fluorescence. In the last washing step the buffer was aspirated and replaced with 100 μl washing buffer. […] The FLIPR setup parameters were set to 0.4 sec exposure length, filter 1, 50 μl fluid addition, pipettor height at 125 μl, dispense speed 40 μl/sec without mixing. Maximal fluorescence changes were obtained using the statistic function of the FLIPR software, and data plotted using GraphPad Prism 4. All points were expressed as a percentage inhibition of the control agonist. IC50 values were determined using sigmoidal dose-response curve fitting. Antagonist potencies (pA2) values were calculated using equation: pA2=−log(IC50/(1+[L]/EC50)),

human NK2-receptor [2] = molecular target: T2, human NK2-receptor; test: Binding potency of the test substances to NK2-receptors in vitro ([3H]-SR 48968 displacement); parameters: expressed in transfected cells; host or cells: CHO cells (membrane preparation); details: human NK2-receptor in CHO cell membranes, [3H]-SR 48968 (saredutant), average of at least three measurements; for Ki: read-out: pKi, binding potency to NK2-receptors (converted)
Summary of the method: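 Membranes from CHO cells stably expressing the receptor were incubated with [3H]-saredutant plus test compound, then filtered and counted by liquid scintillation. Nonspecific binding defined with 0.1 μmol/l unlabeled saredutant. IC50 from displacement converted to Ki via Cheng-Prusoff and reported as pKi, averaged over measurements.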

NK2-receptor = molecular target: T3, NK2-receptor (Cavia porcellus, UniProt Q64077); test: Functional NK2-receptor antagonism in gall bladder preparations isolated from guinea pigs; details: neurokinin A-induced contraction
T3 construct: from tissue; host or cells: whole animal (Pirbright-White guinea pigs), in vivo
T3 sequence (Q64077 1-402): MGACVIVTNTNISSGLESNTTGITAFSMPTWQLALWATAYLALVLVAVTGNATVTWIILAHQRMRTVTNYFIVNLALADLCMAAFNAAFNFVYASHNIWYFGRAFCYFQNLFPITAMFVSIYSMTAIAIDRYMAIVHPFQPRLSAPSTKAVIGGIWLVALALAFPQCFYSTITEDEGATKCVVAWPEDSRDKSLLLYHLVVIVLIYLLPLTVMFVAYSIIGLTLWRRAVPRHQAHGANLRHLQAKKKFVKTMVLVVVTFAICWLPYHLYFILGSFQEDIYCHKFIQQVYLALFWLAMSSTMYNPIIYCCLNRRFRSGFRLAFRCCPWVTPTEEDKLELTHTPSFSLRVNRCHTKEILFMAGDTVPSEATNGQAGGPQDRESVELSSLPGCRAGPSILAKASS
Experimental: 6. Determination of Functional NK2-Receptor Antagonism of Test Compounds in Tissue Isolated from Guinea Pigs.
The NK2 antagonistic action of test compounds was tested in gall bladder preparations isolated from guinea pigs. The preparations were kept in an oxygenated nutrient solution kept at 37° C. For measuring contraction of the gall bladder muscle, the preparations were fixed to a hook and connected to force displacement transducers. Contractions were recorded on a pen recorder.
Before (predrug) and after the administration of the test compound such contractions were measured and quantified in percent of the predrug contraction. 2-3 concentrations of the test compound were applied showing the inhibition of the receptor stimulation concentration dependently. […]

[3] = iv, read-out: ID50 (iv), inhibition of blood pressure

SMILES	ED50 (NK3-receptor; [3]) [mg/kg]	ED50 (NK3-receptor; po, read-out: ID50 (po), inhibition of blood pressure) [mg/kg]	Kb (human NK2-receptor [1]) [nM]	Ki (human NK2-receptor [2]) [nM]	pA2, NK-2-receptor-antagonistic effectiveness on the guinea pig gall bladder in vitro (NK2-receptor)	pA2 data for NK2 (human NK2-receptor [1])	pKi, binding potency to NK2-receptors (human NK2-receptor [2])	ID50 (iv), inhibition of blood pressure (NK3-receptor) [mg/kg]	ID50 (po), inhibition of blood pressure (NK3-receptor) [mg/kg]
CN(C)C(=O)C1(N2CCCCC2)CCN(CC[C@H](CN(C)C(=O)c2ccccc2)c2ccc(Cl)c(Cl)c2)CC1 [compound 1]	0.256	6.38	0.2	0.158					
CN(C)C(=O)C1(N2CCCCC2)CCN(CC[C@H](CN(C)C(=O)C2CCCCC2)c2ccc(Cl)c(Cl)c2)CC1 [compound 3]					8.96	8.7	8.8		
CN(C)C(=O)C1(N2CCCCC2)CCN(CC[C@H](CN(C)C(=O)c2ccc(F)cc2)c2ccc(Cl)c(Cl)c2)CC1 [compound 4]					8.86	8.6	9.6	0.7564	2.3313
CN(C)C(=O)C1(N2CCCCC2)CCN(CC[C@H](CN(C)C(=O)c2ccc(O)cc2)c2ccc(Cl)c(Cl)c2)CC1 [compound 6, 1′-{(3S)-3-(3,4-dichlorophenyl)-4-[(4-hydroxybenzoyl)-(methyl)amino]butyl}-N,N-dimethyl-1,4′-bipiperidine-4′-carboxamide]	0.157		1.58	0.631					
CN(C)C(=O)C1(N2CCCCC2)CCN(CC[C@H](CN(C)C(=O)c2cc(C#N)c3ccccc3c2)c2ccc(Cl)c(Cl)c2)CC1 [compound 11]					8.03	8.4	8.7	1.0554	10
CN(C)C(=O)C1(N2CCCCC2)CCN(CC[C@H](CN(C)C(=O)c2ccc(F)cc2F)c2ccc(Cl)c(Cl)c2)CC1 [compound 13]						8.3	9.0	0.5013	<10
CN(C)C(=O)C1(N2CCCCC2)CCN(CC[C@H](CN(C)C(=O)c2ccc(F)c(F)c2)c2ccc(Cl)c(Cl)c2)CC1 [compound 14]						8.2	9.1	0.5168	6.811
CN(C)C(=O)C1(N2CCCCC2)CCN(CC[C@H](CN(C)C(=O)c2cc(F)ccc2F)c2ccc(Cl)c(Cl)c2)CC1 [compound 15]						8.3	9.2	0.3732	
CN(C)C(=O)C1(N2CCCCC2)CCN(CCC(CN(C)C(=O)c2ccc(Cl)nc2)c2ccc(Cl)c(Cl)c2)CC1 (stereo not shown) [compound 18]	1.01		3.16	1.26					
CN(C)C(=O)C1(N2CCCCC2)CCN(CCC(CN(C)C(=O)c2cccnc2)c2ccc(Cl)c(Cl)c2)CC1 (stereo not shown) [compound 19]	0.39		0.501	3.16					
